The values that follow come from patent publication US20160194299A1 (priority 2013, published 2016).

For data set [1], the system named is Mtb. Nature of the data set: microbe, parasite or virus in culture. Particulars: Mycobacterium tuberculosis, read-out: MIC (III). Format: cell-based, Mycobacterium tuberculosis.
Data set [2] can be described thus: in vitro. Particulars: African green monkey.
In data set [3] the test system is Mtb. Nature of the data set: microbe, parasite or virus in culture. Format: cell-based, Mycobacterium tuberculosis. Particulars: Mycobacterium tuberculosis.
The mark [4] stands for this setting: read-out: MIC, microplate alamar blue assay (MABA; I).

In brackets after ≈: the same amount, converted by molar mass. Like-named read-outs stand apart in the source and are kept apart here. Bounds are passed on as bounds.

For the molecule `COCCOC(=O)NC(=O)c1ccsc1NC(=O)c1nc2ccccc2s1` [Compound 18], the MIC in data set [1] was more than 25 µg/mL; in data set [3] (read-out: MIC (I)), less than 1 µg/mL. In addition, in data set [2], the CC50 is more than 50 µg/mL.

In the case of `CC(C)(C)C(=O)Nc1cc(C(=O)Nc2sccc2C(=O)NC(=O)OCCF)ccn1` [Compound 29], the MIC was more than 25 µg/mL in data set [1] and less than 1 µg/mL in data set [3] (read-out: MIC (I)). In data set [2], the CC50 lay in the range of 25 to 50 µg/mL (≈ 57.3 to 115 µM).

`CC(C)(C)C(=O)Nc1cc(C(=O)Nc2sccc2C(=O)NC(=O)OCCN2CCOCC2)ccn1` [Compound 32]: the figures for the MIC in data set [1] and in data set [3] (read-out: MIC (I)) were more than 25 µg/mL and more than 3 µg/mL, respectively. Besides, the CC50 in data set [2] is more than 50 µg/mL.

Regarding `CCOC(=O)NC(=O)c1ccsc1NC(=O)c1ccnc(NC(=O)N2CCOCC2)c1` [Compound 33], the MIC in data set [1] is more than 25 µg/mL; in data set [3] (read-out: MIC (I)) it was less than 1 µg/mL. This molecule had a CC50 in data set [2] of more than 50 µg/mL.

For `CCOC(=O)NC(=O)c1ccsc1NC(=O)c1nc2cc(C#N)cnc2s1` [Compound 54], the MIC in data set [1] is more than 25 µg/mL; in data set [3] (read-out: MIC (I)), less than 1 µg/mL.

Take `CCOC(=O)NC(=O)c1ccsc1NC(=O)c1nc2c(s1)CCNC2=O` [Compound 55]: the MIC was more than 25 µg/mL in data set [1] and more than 3 µg/mL in data set [3] (read-out: MIC (I)).

As for `CCOC(=O)NC(=O)c1ccsc1NC(=O)c1cn2ccncc2n1` [Compound 78], the MIC was more than 25 µg/mL in data set [1] and more than 3 µg/mL in data set [3] (read-out: MIC (I)).

With `CCOC(=O)NC(=O)c1ccsc1NC(=O)c1nc2c(s1)CCN(CC)C2` [Compound 79], the MIC in data set [1] was more than 25 µg/mL; in data set [3] (read-out: MIC (I)) it was 1 to 3 µg/mL (≈ 2.45 to 7.34 µM).

As for `CCOC(=O)NC(=O)c1ccsc1NC(=O)c1cnc2ncccn12` [Compound 80], the MIC is more than 25 µg/mL in data set [1] and 1 to 3 µg/mL (≈ 2.78 to 8.35 µM) in data set [3] (read-out: MIC (I)).

On to `CCOC(=O)NC(=O)c1ccsc1NC(=O)c1cnc2ccnn2c1` [Compound 81], for which the MIC is more than 25 µg/mL in data set [1] and less than 1 µg/mL in data set [3] (read-out: MIC (I)).

In the case of `CCOC(=O)NC(=O)c1ccsc1NC(=O)c1nc2c(s1)CCN(C(=O)OC)C2` [Compound 95], the values for the MIC in data set [1] and in data set [3] (read-out: MIC (I)) were more than 25 µg/mL and less than 1 µg/mL, respectively.

For `CCOC(=O)NC(=O)c1ccsc1NC(=O)c1nc2c(s1)CCN(S(C)(=O)=O)C2` [Compound 96], the MIC in data set [1] is more than 25 µg/mL; in data set [3] (read-out: MIC (I)), less than 1 µg/mL.

As to `CCOC(=O)NC(=O)c1c(NC(=O)c2nc3ccccc3s2)sc2c1CCOC2` [Compound 242], in data set [1], the MIC is more than 25 µg/mL. In data set [2], this molecule gave a CC50 of more than 50 µg/mL.

As for `CCOC(=O)NC(=O)c1c(C2CC2)csc1NC(=O)c1nc2ccccc2s1` [Compound 245], the MIC was more than 25 µg/mL in data set [1] and more than 3 µg/mL in data set [3] (read-out: MIC (I)).

As to `CCOC(=O)NC(=O)c1ccsc1NC(=O)c1cccnn1` [Compound 249], the MIC in data set [1] is more than 25 µg/mL; in data set [3] (read-out: MIC (I)), more than 3 µg/mL.

Regarding `CCOC(=O)NC(=O)c1ccsc1NC(=O)c1cc2ncccn2n1` [Compound 250], the MIC is 5 to 25 µg/mL (≈ 13.9 to 69.6 µM) in data set [1] and less than 1 µg/mL in data set [3] (read-out: MIC (I)).

As to `CCOC(=O)NC(=O)c1ccsc1NC(=O)c1ccn2nccc2c1` [Compound 251], the results for the MIC in data set [1] and in data set [3] (read-out: MIC (I)) were 5 to 25 µg/mL (≈ 14 to 69.8 µM) and less than 1 µg/mL, respectively.

`CCOC(=O)NC(=O)c1ccsc1NC(=O)c1ccn2nccc2n1` [Compound 252]: the MIC is more than 25 µg/mL in data set [1] and more than 3 µg/mL in data set [3] (read-out: MIC (I)).

Turning to `CCOC(=O)NC(=O)c1ccsc1NC(=O)c1cnn2cccnc12` [Compound 253], the MIC in data set [1] was more than 25 µg/mL; in data set [3] (read-out: MIC (I)) it was more than 3 µg/mL.

In the case of `CC(C)OC(=O)NC(=O)c1ccsc1NC(=O)c1cn2ccccc2n1` [Compound 323], the results for the MIC in data set [1] and in data set [3] (read-out: MIC (I)) were more than 25 µg/mL and 1 to 3 µg/mL (≈ 2.69 to 8.06 µM), respectively.

For the molecule `O=C(NC(=O)c1ccsc1NC(=O)c1cnc2ccnn2c1)OC1CCC1` [Compound 324], the MIC in data set [1] is more than 25 µg/mL; in data set [3] (read-out: MIC (I)), less than 1 µg/mL.

For `CC(OC(=O)NC(=O)c1ccsc1NC(=O)c1nc2cnccc2s1)C(F)(F)F` (centres unmarked) [Compound 325], the MIC was more than 25 µg/mL in data set [1] and less than 1 µg/mL in data set [3] (read-out: MIC (I)).

As to `CC(OC(=O)NC(=O)c1ccsc1NC(=O)c1cnc2ccnn2c1)C(F)(F)F` (centres unmarked) [Compound 326], the MIC in data set [1] is more than 25 µg/mL; in data set [3] (read-out: MIC (I)) it was more than 3 µg/mL.

As to `CCOC(=O)NC(=O)c1ccsc1NC(=O)c1nc2cc(CNC(=O)OC(C)(C)C)cnc2s1` [Compound 411], the CC50 in data set [2] lay within 25 to 50 µg/mL (≈ 49.4 to 98.9 µM). Besides, the MIC in data set [3] (setting [4]) was less than 1 µg/mL.

With `CCOC(=O)NC(=O)c1ccsc1NC(=O)c1nc2ccc(OC)cc2s1` [Compound 412], the CC50 in data set [2] was more than 50 µg/mL. In addition, in data set [3] (setting [4]), the MIC is less than 1 µg/mL.

In data set [2], `CCOC(=O)NC(=O)c1ccsc1NC(=O)c1ccc2sc(C(C)C)nc2c1` [Compound 413] yielded a CC50 of more than 50 µg/mL. The MIC in data set [3] (setting [4]) was less than 1 µg/mL.

Take `CCOC(=O)NC(=O)c1ccsc1NC(=O)c1ccc2sc(C3CC3)nc2c1` [Compound 414]: the CC50 in data set [2] is more than 50 µg/mL. In addition, the MIC in data set [3] (setting [4]) is less than 1 µg/mL.

For the molecule `CCOC(=O)NC(=O)c1ccsc1NC(=O)c1ccc2sc(C(C)(C)C)nc2c1` [Compound 415], the CC50 in data set [2] is more than 50 µg/mL. Also, the MIC in data set [3] (setting [4]) was more than 3 µg/mL.

Consider `CCOC(=O)NC(=O)c1ccsc1NC(=O)c1nc2cc(CN)cnc2s1` [Compound 416], for which the CC50 in data set [2] is more than 50 µg/mL. Moreover, in data set [3] (setting [4]), the MIC fell in the range of 1 to 3 µg/mL (≈ 2.47 to 7.4 µM).

Molecule `O=C(Nc1sccc1C(=O)NC(=O)N1CCCCC1)c1nc2cnccc2s1` [Compound 428] displayed a CC50 in data set [2] of more than 50 µg/mL. Also, the MIC in data set [3] (setting [4]) lay in the range of 1 to 3 µg/mL (≈ 2.41 to 7.22 µM).

`O=C(Nc1sccc1C(=O)OC1CCCC1)c1nc2ccccc2s1` [Compound 429] came in with a CC50 in data set [2] of more than 50 µg/mL. Also, the MIC in data set [3] (setting [4]) was more than 3 µg/mL.

With `O=C(Nc1sccc1C(=O)OC1CCCCC1)c1nc2ccccc2s1` [Compound 430], the CC50 in data set [2] is more than 50 µg/mL. Further, the MIC in data set [3] (setting [4]) was more than 3 µg/mL.

Regarding `COC(=O)COC(=O)NC(=O)c1ccsc1NC(=O)c1nc2cnccc2s1` [Compound 431], the CC50 in data set [2] was in the range of 25 to 50 µg/mL (≈ 59.5 to 119 µM). Further, in data set [3] (setting [4]), the MIC was less than 1 µg/mL.

In data set [2], `COC(=O)c1ccsc1NC(=O)c1nc2cnccc2s1` [Compound 432] showed a CC50 of 25 to 50 µg/mL (≈ 78.3 to 157 µM). For the same molecule, the MIC in data set [3] (setting [4]) was more than 3 µg/mL.

For `CC(C)OC(=O)NC(=O)c1ccsc1NC(=O)c1cn2ccc(C#N)cc2n1` [Compound 433], the CC50 in data set [2] was 25 to 50 µg/mL (≈ 62.9 to 126 µM). Also, in data set [3] (setting [4]), the MIC was in the range of 1 to 3 µg/mL (≈ 2.52 to 7.55 µM).

In data set [2], `O=C(NC(=O)c1ccsc1NC(=O)c1nc2ncccc2s1)OCC(F)(F)F` [Compound 434] registered a CC50 of 25 to 50 µg/mL (≈ 58.1 to 116 µM). Moreover, the MIC in data set [3] (setting [4]) is more than 3 µg/mL.

Consider `O=C(Nc1sccc1C(=O)Nc1nccs1)c1nc2cnccc2s1` [Compound 435], for which the CC50 in data set [2] was 25 to 50 µg/mL (≈ 64.5 to 129 µM). For the same molecule, the MIC in data set [3] (setting [4]) was more than 3 µg/mL.

As for `COCCOC(=O)NC(=O)c1ccsc1NC(=O)c1nc2ncccc2s1` [Compound 436], the CC50 in data set [2] was 25 to 50 µg/mL (≈ 61.5 to 123 µM). The MIC in data set [3] (setting [4]) is more than 3 µg/mL.

On to `O=C(NC(=O)c1ccsc1NC(=O)c1nc2ncccc2s1)OCCOCc1ccccc1` [Compound 437], for which, in data set [2], the CC50 is less than 25 µg/mL. Besides, the MIC in data set [3] (setting [4]) was less than 1 µg/mL.

In data set [2], `CCOC(=O)NC(=O)c1ccsc1NC(=O)c1cn2cc(S(C)(=O)=O)ccc2n1` [Compound 438] had a CC50 of 25 to 50 µg/mL (≈ 57.3 to 115 µM). Besides, the MIC in data set [3] (setting [4]) is less than 1 µg/mL.

Turning to `CC(C)OC(=O)NC(=O)c1ccsc1NC(=O)c1cn2cc(S(C)(=O)=O)ccc2n1` [Compound 439], the CC50 in data set [2] lay in the range of 25 to 50 µg/mL (≈ 55.5 to 111 µM). For the same molecule, the MIC in data set [3] (setting [4]) is more than 3 µg/mL.

`O=C(Nc1sccc1C(=O)Nc1cnccn1)c1nc2cnccc2s1` [Compound 440] returned a CC50 in data set [2] of 25 to 50 µg/mL (≈ 65.4 to 131 µM). In addition, in data set [3] (setting [4]), the MIC is more than 3 µg/mL.

As for `O=C(Nc1sccc1C(=O)Nc1ncccn1)c1nc2cnccc2s1` [Compound 441], in data set [2], the CC50 lay in the range of 25 to 50 µg/mL (≈ 65.4 to 131 µM). Further, the MIC in data set [3] (setting [4]) is less than 1 µg/mL.

In the case of `O=C(Nc1sccc1C(=O)Nc1cccnn1)c1nc2cnccc2s1` [Compound 442], the CC50 in data set [2] was 25 to 50 µg/mL (≈ 65.4 to 131 µM). The MIC in data set [3] (setting [4]) is 1 to 3 µg/mL (≈ 2.61 to 7.84 µM).
